Test results reported in patent US6200989A, “2-alkylidene hydroxycumaranone derivatives” (Hoffmann-La Roche Inc., priority 1997, dated 2001).

Target: uPAR (Homo sapiens, UniProt Q03405)
Assay: ELISA test: inhibition of human urokinase (uPA) binding to its specific receptor uPAR
Settings: test substance preincubated 30 min at room temperature
Protocol: Compounds of the invention were tested (ELISA test) as inhibitors of human urokinase (uPA) binding to its specific receptor uPAR mAk (BIO-R4), according to the procedure described in Biol. Chem. Hoppe-Seyler, 376, 587-94 (1995) by Rettenberger et al. The assays are performed in Microtiterplates (96 wells). The following solutions are used:
washing buffer PBS-buffer (without Mg^2+ and Ca^2+)+0.05% Tween 20;
incubation buffer (IP): 1% skimmed milk powder in PBS-buffer (without Mg^2+ and Ca^2+);
BIO-R4 solution: 50 ng/well (0.5 (g/ml; 100 (l/well) in IP;
uPAR solution: 3 ng/well (30 ng/ml; 100 (l/well) in PBS-buffer (without Mg^2+ and Ca^2+);
blocking solution: 1% skimmed milk powder in washing buffer (dissolved at 37° C.);
uPA solution: 0.25 ng/well (5 ng/ml; 50 (l/well) in IP.
Detect ion solutions (per microtiterplate):
(1) 6 ml (100 mM Tris-Cl pH 7.2+0.15% Tween 80)+1.5 ml (10 (g) Plasminogen in aqua bidest;
(2) 6 ml (100 mM Tris-Cl pH 7.2+0.15% Tween 80)+1.5 ml (7.5 mg) chromozyme PL in aqua bidest.
The detection solution must be continuously stirred. Testing substances: the testing substances are dissolved in DMSO. They are used in the test system with a highest concentration of 100 (g/ml. The solutions are prepared using PBS.
Three controls are performed:
a) positive control: using 2% DMSO in PBS;
b) negative control: assay without receptor;
1) inhibition (IC95 at 0.25 mg/ml) with dextranesulfate (MW=500.000);
2) inhibition (IC90 at 1 (g/ml) with inactivated uPA (175 (g/ml).
Incubation is done as follows:
Each well is incubated by 100 (1 of BIO-R4 (c=0.5 (g/ml) for 1 hour at room temperature under shaking. After washing three times with the washing buffer, each well is incubated for 1 hour (37° C.) with 200 (l/well blocking solution. After triple washing each well is incubated for 1 hour at room temperature under shaking with 100 (l/well uPAR (c=30 ng/ml), then the wells are washed again three times with the washing buffer. The testing substance solution and the control solution, respectively, are added (50 (l/well) and are incubated for 30 minutes at room temperature under shaking. An additional 50 (l of uPA solution (c=2.5 ng/ml) are added. After 1 hour at room temperature a triple washing is performed.
For detection, the following procedure is used:
Incubation with 50 (l each of detection solution (1) and (2) at room temperature. After 20 minutes a yellow colour will be visible (the positive control reads an extinction of 1 after 45-60 minutes). The detection is performed at 405 nm (reference is 490 nm) using a Dynatech MR 7000 ELISA reader. To obtain the percentage of inhibition the following formula is used (E stands for extinction): [formula]

uPAR, sequence (Q03405 23-305 limits assumed): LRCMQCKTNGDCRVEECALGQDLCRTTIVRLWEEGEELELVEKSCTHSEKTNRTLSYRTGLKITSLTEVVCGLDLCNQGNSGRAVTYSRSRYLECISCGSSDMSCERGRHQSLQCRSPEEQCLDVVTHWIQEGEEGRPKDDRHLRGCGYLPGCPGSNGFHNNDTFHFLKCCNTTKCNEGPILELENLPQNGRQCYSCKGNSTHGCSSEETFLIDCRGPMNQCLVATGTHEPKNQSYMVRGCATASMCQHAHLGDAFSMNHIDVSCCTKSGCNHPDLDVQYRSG

CC(C)=C1Oc2cccc(OCCCN3CCC(NC(=O)c4ccc(Cl)c(S(N)(=O)=O)c4)CC3)c2C1=O [4-(3-(4-(3-aminosulfonyl-4-chlorobenzamido)piperidin-1yl)propoxy)-2-isopropylidenecumaran-3-one]
IC50: 91.2 nM

CC(C)=C1Oc2cccc(OCCCCN3CCC(NC(=O)c4ccc(Cl)c(Cl)c4)CC3)c2C1=O [4-(4-(4-(3,4-dichlorobenzamido)piperidin-1-yl)butoxy)-2-isopropylidenecumaran-3-one]
IC50: > 19.3 nM

CC(C)=C1Oc2cccc(OCCOCCN3CCC(NC(=O)c4ccc(F)cc4)CC3)c2C1=O [4-[(2-(2-(4-(4-fluorobenzamido)piperidin-1-yl)ethyl)oxy)ethyloxy]-2-isopropylidenecumaran-3-one]
IC50: 104 nM

CC(C)=C1Oc2cccc(OC/C=C\CN3CCC(NC(=O)c4ccc(Cl)c(Cl)c4)CC3)c2C1=O [(Z)-4-(4-(4-(3,4-dichlorobenzamido)piperidin-1-yl)-2-butenoxy)-2-isopropylidenecumaran-3-one]
IC50: > 19.4 nM

CC(C)=C1Oc2cccc(OC/C=C/CN3CCC(NC(=O)c4ccc(Cl)c(Cl)c4)CC3)c2C1=O [(E)-4-(4-(4-(3,4-dichlorobenzamido)piperidin-1-yl)-2-butenoxy)-2-isopropylidenecumaran-3-one]
IC50: > 19.4 nM
